Consider seven compounds from article PMC4561908, “Direct Pore Binding as a Mechanism for Isoflurane Inhibition of the Pentameric Ligand-gated Ion Channel ELIC” (Scientific Reports, 2015).

Like-named read-outs stand apart in the source and are kept apart here.

Assay [1] relates to α7 nAChR. Also noted: method as in ref 12 (a number printed in a supplementary file, which may have a reference list of its own: not looked up in the article's list). The settings on record: read-out: IC50 for nAChRs: α7 (chicken); cited from earlier work.
Assay [2] concerns the target T1, ELIC (Dickeya chrysanthemi, UniProt P0C7B7).
T1 construct: DNA encoding ELIC and a T7 promoter was inserted into the pCMV-mGFP Cterm S11 NeoKan (Theranostech) vector; expressed in transfected cells; host or cells: Xenopus laevis oocytes (cRNA injection)
Put plainly: Two-electrode voltage clamp inhibition of wild-type ELIC expressed in Xenopus laevis oocytes. The format is cell-based, Erwinia chrysanthemi. An excerpt:
The scale bars are 0.2 μA (vertical) and 30s (horizontal). The data were normalized to the current at EC20 in the absence of anesthetics and fit to the Hill equation (solid lines, n ≥ 6) for the volatile (b) and intravenous (c) general anesthetics. […] The data are reported as the mean ± SEM and error bars less than the symbol size are not visible.
Site-directed mutagenesis of ELIC was introduced with the QuickChange Lightning Kit (Agilent). DNA encoding ELIC and a T7 promoter was inserted into the pCMV-mGFP Cterm S11 NeoKan (Theranostech) vector. Capped complementary RNA was transcribed with the mMessage mMachine T7 kit (Ambion), purified with the RNeasy kit (Qiagen), injected (10–25 ng) into Xenopus laevis oocytes (stages 5–6), which were maintained at 18 °C in a modified Barth’s solution[40]. […] Oocytes were clamped to a holding potential of −40 to −60 mV. The recording solutions contained 130 mM NaCl, 0.1 mM CaCl2, 10 mM HEPES, pH 7.0 as well as desired concentrations of agonist and anesthetics. Data were collected and processed using Clampex 10 (Molecular Devices). Non-linear regressions were performed using Prism software (Graphpad).
For measuring anesthetic inhibitory effects, saturated solutions of the volatile anesthetics isoflurane, sevoflurane, and halothane were prepared in the recording solution by stirring overnight at 4 °C. Concentrations of these anesthetics in the recording chamber were calibrated using ^19F NMR[63]. The intravenous anesthetics, propofol, etomidate, and thiopental, were dissolved directly into the recording solution.

Assay [3] deals with α4β4 nAChR. The arrangement: method as in ref 11 (a number printed in a supplementary file, which may have a reference list of its own: not looked up in the article's list). To be noted: read-out: IC50 for nAChRs: α4β4 (chicken); cited from earlier work.
In assay [4] the test system is α4β2 nAChR. To be noted: read-out: IC50 for nAChRs: α4β2 (rat); cited from earlier work.
For assay [5] the following is noted: anesthetizing concentrations in animals; read-out: Clinical EC50; cited from earlier work.
In assay [6] the test system is α4β2 nAChR. Also noted: method as in ref 6 (a number printed in a supplementary file, which may have a reference list of its own: not looked up in the article's list). The settings on record: read-out: IC50 for nAChRs: α4β2 (chicken); cited from earlier work.
In assay [7] the target is T2, ELIC A244T mutant (Dickeya chrysanthemi, UniProt P0C7B7, A243T).
T2 construct: DNA encoding ELIC and a T7 promoter was inserted into the pCMV-mGFP Cterm S11 NeoKan (Theranostech) vector; expressed in transfected cells; host or cells: Xenopus laevis oocytes (cRNA injection)
The assay is described as follows: Two-electrode voltage clamp of A244T (13′) ELIC mutant in Xenopus laevis oocytes. In kind it is cell-based, Erwinia chrysanthemi. An excerpt: (§1) To establish the functional relevance of the identified isoflurane-binding sites, we made site-directed mutations, one at a time, at positions 6′ (T237A) and 13′ (A244T). Subsequently, we expressed these mutants in Xenopus laevis oocytes and measured their functional responses to isoflurane (Fig. 3). […] However, these mutant channels, especially T237A, are much less sensitive to isoflurane inhibition than the WT ELIC. […] The functional consequences of these mutations are associated with changes in the hydrophobicity profile and pore radii near positions 6′ and 13′ (Supplementary Fig. 2). It should be noted that the side chains of the hydrophobic residue at the 9′ position are involved in both of the isoflurane-binding sites (Fig. 2c). The fact that the isoflurane inhibition curve shifts an order of magnitude to the right in the T237A mutant indicates the importance of amphipathic interactions at position 6′ for isoflurane inhibition.
Figure 3 Functional evidence of isoflurane binding to the pore. (a) Representative current traces for isoflurane inhibition of WT and two mutants: T237(6′)A; and A244(13′)T. The scale bars are 0.1 μA (vertical) and 30s (horizontal). (b) Agonist propylamine (PPA) concentration-response curves for WT and two mutants indicated in (a). The data were normalized to the maximum current and fit to the Hill equation (solid lines, n ≥ 5). (c) Isoflurane inhibition of WT and the two mutants indicated in (a). The data were normalized to the current at EC20 in the absence of isoflurane and fit to the Hill equation (solid lines, n ≥ 6). The data are reported as the mean ± SEM and error bars less than the symbol size are not visible.
Site-directed mutagenesis of ELIC was introduced with the QuickChange Lightning Kit (Agilent). DNA encoding ELIC and a T7 promoter was inserted into the pCMV-mGFP Cterm S11 NeoKan (Theranostech) vector. […]
On the technique in general: Two-electrode voltage clamp holds a large cell at a set potential and records current.

The subject of assay [8] is α7 nAChR. The arrangement: method as in ref 16 (a number printed in a supplementary file, which may have a reference list of its own: not looked up in the article's list). The settings on record: read-out: IC50 for nAChRs: α7 (human); cited from earlier work.
The test system of assay [9] is α2β4 nAChR. The settings on record: cited from earlier work.
In assay [10] the test system is α4β2 nAChR. The settings on record: read-out: IC50 for nAChRs: α4β2 (human); cited from earlier work.
Assay [11] deals with T3, ELIC T237A mutant (Dickeya chrysanthemi, UniProt P0C7B7, T236A).
T3 construct: DNA encoding ELIC and a T7 promoter was inserted into the pCMV-mGFP Cterm S11 NeoKan (Theranostech) vector; expressed in transfected cells; host or cells: Xenopus laevis oocytes (cRNA injection)
T3 sequence (P0C7B7 1-321 T236A): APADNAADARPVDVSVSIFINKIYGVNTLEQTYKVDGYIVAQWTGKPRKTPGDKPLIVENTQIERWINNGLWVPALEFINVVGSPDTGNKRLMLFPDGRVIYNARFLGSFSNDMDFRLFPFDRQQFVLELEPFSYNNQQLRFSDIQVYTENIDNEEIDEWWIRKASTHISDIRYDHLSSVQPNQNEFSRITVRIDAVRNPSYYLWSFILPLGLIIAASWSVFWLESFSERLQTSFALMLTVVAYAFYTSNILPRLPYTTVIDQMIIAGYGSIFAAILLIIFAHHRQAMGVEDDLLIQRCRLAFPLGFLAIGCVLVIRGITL
The assay is described as follows: Two-electrode voltage clamp of T237A (6′) ELIC mutant in Xenopus laevis oocytes. In kind it is cell-based, Erwinia chrysanthemi.
Excerpt: as §1
Figure 3 Functional evidence of isoflurane binding to the pore. (a) Representative current traces for isoflurane inhibition of WT and two mutants: T237(6′)A; and A244(13′)T. The scale bars are 0.1 μA (vertical) and 30s (horizontal). (b) Agonist propylamine (PPA) concentration-response curves for WT and two mutants indicated in (a). The data were normalized to the maximum current and fit to the Hill equation (solid lines, n ≥ 5). […]

The target of assay [12] is T1, ELIC. Put plainly: Isoflurane pre-incubation: onset of agonist-induced ELIC current. In kind it is cell-based, Erwinia chrysanthemi. To be noted: mean ± SEM, n = 15. The protocol:
Since isoflurane binds to the pore of the resting state of ELIC (Fig. 2a), pre-incubating the oocytes expressing ELIC with isoflurane for a short period of time is expected to enhance the inhibitory effect.
Figure 4 Isoflurane binding stabilized the closed channel. (a) A representative trace showing that pre-incubation with isoflurane (red arrows) slowed the onset rate and increased the maximum inhibition. The vertical and horizontal scale bars represent 20 μA and 30 seconds, representatively. (b) The onset rate of the channel current can be fitted to a single exponential decay function, I = Imax (1−e^(−t/τ)). The fitting results for the onset rate τ and Imax for channels pre-incubated with isoflurane (red line) are 1.73 ± 0.04 s and −0.33 ± 0.02 μA, respectively; and 1.25 ± 0.05 s and −0.41 ± 0.03 μA, respectively, for channels without isoflurane pre-incubation (green line). The fitting parameters are expressed as mean ± SEM (n = 15).
Site-directed mutagenesis of ELIC was introduced with the QuickChange Lightning Kit (Agilent). DNA encoding ELIC and a T7 promoter was inserted into the pCMV-mGFP Cterm S11 NeoKan (Theranostech) vector. Capped complementary RNA was transcribed with the mMessage mMachine T7 kit (Ambion), purified with the RNeasy kit (Qiagen), injected (10–25 ng) into Xenopus laevis oocytes (stages 5–6), which were maintained at 18 °C in a modified Barth’s solution[40]. All procedures involving Xenopus laevis oocytes were approved by the University of Pittsburgh Institutional Animal Care and Use Committee (IACUC), Protocol 14114745. Two-electrode voltage clamp experiments were performed 16–40 hrs after injection using an Oocyte Clamp OC-725C amplifier (Warner Instruments), Digidata 1440A digitizer (Axon Instruments), and a 20 μl chamber (Automate Scientific). Oocytes were clamped to a holding potential of −40 to −60 mV. The recording solutions contained 130 mM NaCl, 0.1 mM CaCl2, 10 mM HEPES, pH 7.0 as well as desired concentrations of agonist and anesthetics. Data were collected and processed using Clampex 10 (Molecular Devices). Non-linear regressions were performed using Prism software (Graphpad).

In assay [13] the test system is α3β4 nAChR. Also noted: method as in ref 8 (a number printed in a supplementary file, which may have a reference list of its own: not looked up in the article's list). To be noted: read-out: IC50 for nAChRs: α3β4; cited from earlier work.
Setting [14] is: WT ELIC, agonist propylamine (PPA) at EC20, oocytes, mean ± SEM, n ≥ 6, read-out: IC50 for ELIC.
[15] abbreviates: channels pre-incubated with isoflurane, single exponential fit.
Where [16] appears, read: channels without isoflurane pre-incubation.

T2 sequence (P0C7B7 whole entry A243T): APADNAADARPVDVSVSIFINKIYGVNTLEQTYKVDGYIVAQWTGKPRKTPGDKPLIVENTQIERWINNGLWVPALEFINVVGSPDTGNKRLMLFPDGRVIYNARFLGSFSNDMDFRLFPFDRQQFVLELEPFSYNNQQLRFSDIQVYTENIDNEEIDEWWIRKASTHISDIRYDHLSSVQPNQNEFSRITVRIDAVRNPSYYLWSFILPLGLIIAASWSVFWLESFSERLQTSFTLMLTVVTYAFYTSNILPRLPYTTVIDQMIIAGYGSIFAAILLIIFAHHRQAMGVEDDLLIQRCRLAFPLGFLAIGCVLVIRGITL
T1 sequence (P0C7B7 whole entry): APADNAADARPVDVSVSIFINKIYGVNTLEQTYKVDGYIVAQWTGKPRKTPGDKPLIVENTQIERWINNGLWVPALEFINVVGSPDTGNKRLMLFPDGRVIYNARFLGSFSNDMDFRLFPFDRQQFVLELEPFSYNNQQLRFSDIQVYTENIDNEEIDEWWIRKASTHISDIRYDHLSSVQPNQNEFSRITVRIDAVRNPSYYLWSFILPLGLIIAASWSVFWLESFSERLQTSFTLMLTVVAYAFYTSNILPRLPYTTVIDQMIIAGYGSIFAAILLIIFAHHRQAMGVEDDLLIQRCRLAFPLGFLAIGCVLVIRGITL

For `CCOC(=O)c1cncn1[C@H](C)c1ccccc1` [etomidate], the half-maximal inhibitory concentration (IC50) in assay [1] is 25.3 µM; in [2] it was 11.2 ± 1.1 µM; in assay [3] it was 33 µM; in assay [4] it was 49 µM.

For the compound `CC(C)c1cccc(C(C)C)c1O` [propofol], in assay [5], the EC50 is 1.5 µM. Also, the figures for the IC50 in [2] (setting [14]), in assay [6] and in [4] were 11.9 ± 1.1 µM, 19 µM and 4.5 µM, respectively.

On to `FCOC(C(F)(F)F)C(F)(F)F` [sevoflurane], for which the IC50 in assay [2] (setting [14]) turned out to be 23.2 ± 1.6 µM.

For `CCCN` [PPA, propylamine], in [7] (A244T mutant vs wild-type ELIC), the “EC50 of agonist PPA compared with WT ELIC” value is “nearly identical”.

In the case of `CCCC(C)C1(CC)C(=O)NC(=S)NC1=O` (centres unmarked) [thiopental], the values for the IC50 in assay [8], in assay [2] and in assay [4] were 40.6 µM, 42.8 ± 1.1 µM and 26 µM, respectively. Further, the concentration giving a half-maximal response (EC50) in [5] was 25 µM.

Turning to `FC(F)(F)C(Cl)Br` (centres unmarked) [halothane], the figures for the half-inhibitory concentration (IC50) in [9] (read-out: IC50 for nAChRs: α2β4 (human)), in assay [2] (setting [14]) and in assay [10] were 47 µM, 40 ± 4.5 µM and 27 µM, respectively.

On to `FC(F)OC(Cl)C(F)(F)F` (centres unmarked) [isoflurane], for which the IC50 in assay [11] (T237A (6′) mutant, PPA at EC20, mean ± SEM, n ≥ 6, read-out: IC50 of isoflurane, T237A channel) was 525 ± 58.2 µM; in assay [9] (read-out: IC50 for nAChRs: α2β4) it was 25 µM; in assay [2] (setting [14]), 21.9 ± 1.5 µM; in [10], 82 µM; in assay [13], 56 µM; in assay [7] it was 61.7 ± 5.5 µM. In addition, the figures for the “Increase of isoflurane IC50 relative to the WT channel” value in assay [11] (T237A vs WT ELIC) and in assay [7] (A244T vs WT ELIC) were “more than an order of magnitude” and roughly 3 fold, respectively. The entries for the “Imax of channel current” value in assay [12] (setting [15]) and in assay [12] (setting [16]) were −0.33 ± 0.02 μA and −0.41 ± 0.03 μA, respectively. Also, the “Onset rate τ of channel current” value was found to be 1.73 ± 0.04 s in assay [12] (setting [15]) and 1.25 ± 0.05 s in assay [12] (setting [16]).

In general, IC50 refers to the concentration that gives 50% inhibition. For orientation: EC50 means the concentration giving half of the maximal effect.
